{"source": "patent US12398235B2", "about": "“Oligomeric epoxy pre-polymers comprising isosorbide units” (ROQUETTE FRERES, priority 2020, dated 2025)", "test_system": "bacterial strain (mutant bacterial colonies)", "assay": "Ames test of epoxy pre-polymers (mutagenic potential)", "assay_type": "cell-based", "details": "number of mutant bacterial colonies from a given strain exposed to the compound, non-toxic at induction ratio of 2 or less", "method": "In order to determine the mutagenic potential of the epoxy pre-polymers, an Ames test was carried out on different Mn and EEW epoxy resins. The results are expressed in induction levels, that is, the number of mutant bacterial colonies obtained from a given strain exposed to the compound. The resin is considered to be non-toxic in the case of an induction ratio of 2 or less."}
{"smiles": "C1OC1COC1COC2C(OCC3CO3)COC12", "note": "(stereo not shown) [IDGE 1* fraction, isosorbide diglycidylether]", "values": [{"measurement": "Induction ratio", "value": 20.2}]}
